Data reported in patent publication EP2264010A1, “Hetarylamidines” (Bayer CropScience AG, priority 2009, dated 2010).

Assays:
Assay type in all cases: in vivo
SETVI = assay: Herbicidal activity, test type PE; conditions: TEST-TYP PE; for pest or weed control at 320 g/ha: read-out: herbizide Wirkung SETVI; for herbizide Wirkung SETVI: 320 G/HA
VERPE [1] = assay: Herbicidal activity, test type PE; conditions: TEST-TYP PE; for pest or weed control at 320 g/ha: read-out: herbizide Wirkung VERPE; for herbizide Wirkung VERPE: 320 G/HA
AMARE [2] = assay: Herbicidal activity, test type PE; conditions: TEST-TYP PE; for pest or weed control at 320 g/ha: Amaranthus retroflexus, read-out: herbizide Wirkung AMARE; for herbizide Wirkung AMARE: 320 G/HA
MATIN = assay: Herbicidal activity, test type PE; conditions: TEST-TYP PE; for pest or weed control at 320 g/ha: read-out: herbizide Wirkung MATIN; for herbizide Wirkung MATIN: 320 G/HA
VIOTR [3] = assay: Herbicidal activity, test type PE; conditions: TEST-TYP PE; for pest or weed control at 320 g/ha: read-out: herbizide Wirkung VIOTR; for herbizide Wirkung VIOTR: 320 G/HA
ECHCG = assay: Herbicidal activity, test type PE; conditions: TEST-TYP PE, 320 G/HA
STEME = assay: Herbicidal activity, test type PE; conditions: TEST-TYP PE, read-out: herbizide Wirkung STEME
LOLMU = assay: Herbicidal activity, test type PE; conditions: TEST-TYP PE, read-out: herbizide Wirkung LOLMU
AMARE [4] = assay: Herbicidal activity, test type PO; conditions: TEST-TYP PO, 80 G/HA
VIOTR [5] = assay: Herbicidal activity, test type PO; conditions: TEST-TYP PO, 80 G/HA
ALOMY = assay: Herbicidal activity, test type PE; conditions: TEST-TYP PE, 320 G/HA
PHBPU = assay: Herbicidal activity, test type PO; conditions: TEST-TYP PO, 80 G/HA
VERPE [6] = assay: Herbicidal activity, test type PO; conditions: TEST-TYP PO, 80 G/HA

SMILES | pest or weed control at 320 g/ha (SETVI) | pest or weed control at 320 g/ha (VERPE [1]) | pest or weed control at 320 g/ha (AMARE [2]) | pest or weed control at 320 g/ha (MATIN) | pest or weed control at 320 g/ha (VIOTR [3]) | further results
Cc1cnc(N=CN(C)C)c(-c2cccc(C(F)(F)F)c2)c1 [compound 31] | 80% | 80% | – | – | – | –
CCN(C)C=Nc1ncc(C)cc1-c1cccc(C(F)(F)F)c1 [compound 32] | 90% | 80% | 80% | 90% | 80% | –
CCN(C)C=Nc1ncc(-c2ccc(Cl)c(C(F)(F)F)c2)cc1C [compound 58] | 90% | 90% | 90% | 80% | – | herbizide Wirkung ECHCG (ECHCG): 90
Cc1cc(-c2ccc(Cl)c(C(F)(F)F)c2)cnc1N=CN(C)C [compound 59] | – | 80% | 80% | 80% | 80% | pest or weed control at 320 g/ha (STEME): 80%
Cc1cc(-c2ccc(F)c(C(F)(F)F)c2)cnc1N=CN(C)C [compound 64] | 90% | 100% | 90% | 100% | 90% | pest or weed control at 320 g/ha (LOLMU): 90%; pest or weed control at 320 g/ha (STEME): 90%; herbizide Wirkung AMARE (AMARE [4]): 80; herbizide Wirkung VIOTR (VIOTR [5]): 80
CCN(C)C=Nc1ncc(-c2ccc(F)c(C(F)(F)F)c2)cc1C [compound 66] | 100% | 90% | 90% | 90% | 90% | herbizide Wirkung ALOMY (ALOMY): 80; herbizide Wirkung ECHCG (ECHCG): 90; pest or weed control at 320 g/ha (LOLMU): 90%; pest or weed control at 320 g/ha (STEME): 90%; herbizide Wirkung PHBPU (PHBPU): 80; herbizide Wirkung VIOTR (VIOTR [5]): 80
Cc1cc(-c2cccc(C(F)(F)F)c2)cnc1N=CN(C)C [compound 76] | 100% | – | 90% | – | 90% | –
CCN(C)C=Nc1ncc(-c2cccc(C(F)(F)F)c2)cc1C [compound 77] | 90% | – | 80% | – | – | herbizide Wirkung ECHCG (ECHCG): 90; pest or weed control at 320 g/ha (LOLMU): 90%
CCN(C)C=Nc1ncc(-c2ccc(Cl)c(Cl)c2)cc1C [compound 94] | 90% | 80% | – | – | 80% | –
Cc1cc(-c2ccc(Cl)c(Cl)c2)cnc1N=CN(C)C [compound 95] | 80% | – | – | – | 80% | –
CCN(C)C=Nc1ncc(-c2cccc(Cl)c2)cc1C [compound 101] | 90% | – | 80% | 95% | 80% | herbizide Wirkung ECHCG (ECHCG): 85; pest or weed control at 320 g/ha (LOLMU): 80%; herbizide Wirkung AMARE (AMARE [4]): 80; herbizide Wirkung PHBPU (PHBPU): 80
Cc1cc(-c2cccc(Cl)c2)cnc1N=CN(C)C [compound 102] | 90% | – | – | 90% | 80% | pest or weed control at 320 g/ha (LOLMU): 80%
CCN(C)C=Nc1ncc(-c2cccc(C)c2)cc1C [compound 105] | 80% | – | – | – | – | herbizide Wirkung ECHCG (ECHCG): 80
Cc1cccc(-c2cnc(N=CN(C)C)c(C)c2)c1 [compound 106] | – | – | – | 80% | 80% | –
CCN(C)C=Nc1ncc(C)cc1-c1ccc(Cl)c(C(F)(F)F)c1 [compound 127] | – | – | 90% | 80% | – | herbizide Wirkung SETVI (SETVI): 90; herbizide Wirkung VIOTR (VIOTR [3]): 80
CCN(C=Nc1ncc(Cl)cc1-c1ccc(F)c(C(F)(F)F)c1)CC [compound 140] | – | – | – | – | – | herbizide Wirkung MATIN (MATIN): 80; herbizide Wirkung SETVI (SETVI): 80; herbizide Wirkung AMARE (AMARE [4]): 80; herbizide Wirkung PHBPU (PHBPU): 80; herbizide Wirkung VERPE (VERPE [6]): 80
Fc1ccc(-c2cc(Cl)cnc2N=CN2CCCC2)cc1C(F)(F)F [compound 141] | – | – | 80% | – | – | herbizide Wirkung SETVI (SETVI): 80
CCN(C)C=Nc1ncc(C)cc1-c1ccc(F)c(C(F)(F)F)c1 [compound 142] | – | – | – | 80% | – | herbizide Wirkung AMARE (AMARE [2]): 80; herbizide Wirkung SETVI (SETVI): 90; pest or weed control at 320 g/ha (STEME): 90%; herbizide Wirkung VERPE (VERPE [1]): 90
Cc1cnc(N=CN2CCCC2)c(-c2ccc(F)c(C(F)(F)F)c2)c1 [compound 147] | – | 90% | – | – | – | –
CCN(C)C=Nc1ncc(-c2ccc(Cl)c(C(F)(F)F)c2)cc1C [compound 175] | – | – | – | – | – | herbizide Wirkung AMARE (AMARE [2]): 80; herbizide Wirkung ECHCG (ECHCG): 90; herbizide Wirkung VERPE (VERPE [1]): 90
Cc1cc(-c2ccc(F)c(C(F)(F)F)c2)cnc1N=CN(C)C [compound 181] | – | – | – | – | – | herbizide Wirkung AMARE (AMARE [2]): 100; herbizide Wirkung MATIN (MATIN): 90; herbizide Wirkung VIOTR (VIOTR [3]): 90; herbizide Wirkung AMARE (AMARE [4]): 80; herbizide Wirkung PHBPU (PHBPU): 90; herbizide Wirkung VERPE (VERPE [6]): 80
